Legend:
Format in all cases: cell-based
hBGT1 [1] = target: T1, hBGT1 (Homo sapiens, UniProt P48065); experiment: Oocyte uptake assay with BGT1 cRNA-injected Xenopus oocytes; parameters: expressed in transfected cells; host or cells: Xenopus oocytes injected with in vitro transcribed BGT1 cRNA; settings: oocytes expressing BGT1 protein
T1 sequence (P48065 1-614): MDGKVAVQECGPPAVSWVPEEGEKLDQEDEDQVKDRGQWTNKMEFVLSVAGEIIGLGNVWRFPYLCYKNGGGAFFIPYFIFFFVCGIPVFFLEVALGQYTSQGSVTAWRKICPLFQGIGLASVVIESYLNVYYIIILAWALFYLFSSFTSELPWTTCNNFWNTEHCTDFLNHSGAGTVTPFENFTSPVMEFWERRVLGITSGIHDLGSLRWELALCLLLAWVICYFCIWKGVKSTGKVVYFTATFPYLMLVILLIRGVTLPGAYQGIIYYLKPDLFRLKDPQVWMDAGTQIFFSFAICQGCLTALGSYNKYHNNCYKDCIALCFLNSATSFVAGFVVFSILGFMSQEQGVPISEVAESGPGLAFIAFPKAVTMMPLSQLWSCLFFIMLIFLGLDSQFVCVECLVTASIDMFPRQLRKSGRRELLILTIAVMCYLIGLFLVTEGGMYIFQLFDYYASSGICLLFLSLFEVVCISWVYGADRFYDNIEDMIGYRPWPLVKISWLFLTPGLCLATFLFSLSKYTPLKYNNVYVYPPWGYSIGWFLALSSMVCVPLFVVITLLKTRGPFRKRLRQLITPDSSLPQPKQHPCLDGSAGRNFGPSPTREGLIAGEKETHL
Protocol: For expression in Xenopus oocytes, in vitro BGT1 cRNA is prepared and injected into defoliculated oocytes.
To measure directly the uptake of possible substrates, an oocyte uptake assay is performed in which uptake of compounds is measured by mass spectroscopy. […] Oocytes injected with BGT1 cRNA are incubated at 16-18° C. until maximal transporter expression is reached. Oocytes from the same batch, not injected with cRNA, can be used as a control. […] Subpools are homogenized in 150 μl of ice cold 80% MeOH/H2O and lysed manually.

hBGT1 [2] = target: T1, hBGT1; experiment: hBGT1 competition uptake assay (inhibition of 3H-GABA uptake); parameters: expressed in transfected cells; host or cells: HEK-TREx cells (HEK-TREx-BGT1 inducible line), induced with tetracycline/doxycycline and butyrate; settings: HEK-TREx-BGT1 cells induced to express BGT1; FIG. 2
Protocol: Alternatively, cells were washed manually with equivalent volumes using a multichannel pipettor.
Non-specific uptake was determined by measuring the uptake into cells not induced to express the transporter (“no tet”).

hBGT1 [3] = target: T1, hBGT1; experiment: hBGT1 direct uptake assay (LC-MS-MS); parameters: expressed in transfected cells; host or cells: HEK-TREx cells (HEK-TREx-BGT1 inducible line), induced with tetracycline/doxycycline and butyrate; settings: HEK-TREx-hBGT1 cells induced to express hBGT1
Protocol: Four concentrations (bracketing the affinity as measured by competition assays) per compound were routinely tested. Non-specific uptake was determined by measuring the uptake into cells not induced to express the transporter (“no tet”).
Typically, four concentrations bracketing the IC50 were tested. […] The samples were robustly vortexed and centrifuged for 10 minutes at 13,200 rpm to spin down any precipitate. […] Three additional 2-fold dilutions were made in the subsequent rows (B-D or […]) in HBSS.
An internal standard of 50 μM propranolol in 50:50 ethanol:water was also prepared.
The cells were washed twice in room temperature HBSS (100 μl/well/wash) using a 96-well plate washer (Bio Tek ELX405). Alternatively, cells were washed manually with equivalent volumes using a multichannel pipettor. Immediately before the assay was begun, the final 100 μl wash solution was removed from the cells.
After the final wash, as much of the wash buffer as possible was removed by aspirating the wells with a probe that reached the bottom of the wells. (Residual salts from the wash buffer can adversely affect the LC-MS-MS by disrupting the LC method or by suppressing the MS signal.) 150 μl of a 50:50 ethanol:water solution was added to each well to lyse the cells and extract the test compound. The plate was covered and allowed to sit for 20 minutes at room temperature to ensure cell lysis. […]

Direct Uptake Vmax (hBGT1 [3]) [pmol/min/well]	Compound	3H-GABA uptake versus noninjected controls (hBGT1 [1])	Effect of unlabeled competitor on uptake of labeled GABA (hBGT1 [2])
–	NCCCC(=O)O [^3H-GABA]	higher levels of ^3H-GABA uptake than noninjected controls	–
110	NCCCC(=O)O [GABA, γ-aminobutyric acid]	–	the uptake of labeled GABA decreased as the concentration of unlabeled GABA increased
